Each structure is given as a SMILES string. Where two headings read alike, the source gives them in different places. Some results are limits rather than exact numbers.

For assay [1], the target named is T1, α1A-AR (Rattus norvegicus, UniProt P43140).
T1 construct: expressed in transfected cells; host or cells: COS-1
T1 sequence (P43140 1-466): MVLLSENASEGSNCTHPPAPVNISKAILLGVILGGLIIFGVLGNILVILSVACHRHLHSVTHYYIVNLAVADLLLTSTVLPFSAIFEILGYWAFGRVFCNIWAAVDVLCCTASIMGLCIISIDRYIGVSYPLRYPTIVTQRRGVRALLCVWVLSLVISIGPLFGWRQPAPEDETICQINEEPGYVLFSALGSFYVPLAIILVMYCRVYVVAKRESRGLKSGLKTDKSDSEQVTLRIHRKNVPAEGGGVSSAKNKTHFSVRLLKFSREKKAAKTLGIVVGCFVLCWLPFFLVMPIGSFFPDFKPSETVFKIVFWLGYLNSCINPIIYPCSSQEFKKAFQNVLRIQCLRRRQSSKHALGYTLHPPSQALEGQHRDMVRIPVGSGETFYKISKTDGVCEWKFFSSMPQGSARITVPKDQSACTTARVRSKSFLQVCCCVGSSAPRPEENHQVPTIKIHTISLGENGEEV
The experiment in a line: [3H]Prazosin competition/saturation binding on COS-1 membranes expressing α1A-AR. To be noted: for Ki: [3H]Prazosin 200 pM, COS-1 membranes. On the set-up: species or system rodent. The method, then:
(§1) COS-1 cells (American Type Culture Collection, Manassas, VA) were cultured in Dulbecco's modified Eagle's medium (DMEM) supplemented with 10% (v/v) heat inactivated fetal bovine serum (FBS), 100 µg ml^−1 penicillin and 100 µg ml^−1 streptomycin. Cells were maintained and passaged upon reaching confluence by standard cell culture techniques. pMT4 plasmids containing rodent α1-AR (a kind gift from Prof R Graham, Victor Chang Cardiac Research Institute, Australia) were used to transfect cells. Transient expression in COS-1 cells was accomplished using two techniques; the diethylaminoethane-dextran (DEAE-dextran) and Lipofectamine 2000 (Invitrogen, Carlsbad, CA, USA) methods. Briefly, the DEAE-dextran method involved washing of cells with phosphate buffered saline (PBS), followed by the addition of the DNA mixture (12–25 µg/4×10^6 cells) in DEAE-dextran (10 mg ml^−1) to cells at 60–80% confluency. Following a 3 h incubation, a PBS wash with 10% DMSO was used to shock the cells. Cells were harvested 72 h post transfection. For the Lipofectamine 2000 method, cells were incubated for 12 h with Opti-MEM (GIBCO BRL, Gaithersburg, MD, USA) containing Lipofectamine 2000.
(§2) Membranes were prepared as described previously. Briefly, COS-1 cells were transiently transfected using the DEAE-dextran method. […] Protein concentration was determined using Bradford reagent (Sigma, St Louis, MO, USA).
(§3) For all binding experiments, the reaction mixture was incubated for 1 h at room temperature, stopped by the addition of 4°C PBS and filtered with a Brandel cell harvester (Gaithersburg, MD, USA) on GF/C filters. Nonspecific binding was defined as binding in the presence of 100 µM phentolamine hydrochloride.
(§4) Nonlinear regression analysis of saturation and competition binding assay data was performed using the […] curve fitting program GraphPad Prism (San Diego, CA, USA). […] The competitive binding data for each ligand was tested for both one and two -site binding.

The next assay has as its target T2, α1B-AR (Mesocricetus auratus, UniProt P18841).
T2 construct: expressed in transfected cells; host or cells: COS-1
T2 sequence (P18841 1-515): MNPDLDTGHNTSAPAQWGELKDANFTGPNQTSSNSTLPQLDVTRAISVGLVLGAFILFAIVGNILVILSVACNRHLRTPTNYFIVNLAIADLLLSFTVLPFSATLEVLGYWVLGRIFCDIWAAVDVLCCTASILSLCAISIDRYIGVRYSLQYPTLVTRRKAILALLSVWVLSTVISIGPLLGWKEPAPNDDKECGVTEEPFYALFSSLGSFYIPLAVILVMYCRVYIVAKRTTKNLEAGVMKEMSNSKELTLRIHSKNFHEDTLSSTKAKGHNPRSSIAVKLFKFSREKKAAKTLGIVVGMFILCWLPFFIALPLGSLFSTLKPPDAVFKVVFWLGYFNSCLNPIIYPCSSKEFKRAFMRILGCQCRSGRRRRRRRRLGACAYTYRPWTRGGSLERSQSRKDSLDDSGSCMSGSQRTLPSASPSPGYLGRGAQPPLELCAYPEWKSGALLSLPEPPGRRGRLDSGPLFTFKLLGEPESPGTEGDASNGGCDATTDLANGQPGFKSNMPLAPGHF
The experiment in a line: [3H]Prazosin competition/saturation binding on COS-1 membranes expressing α1B-AR. Further details: species or system rodent. To be noted: [3H]Prazosin 200 pM, COS-1 membranes. The method, then: as §1, §2, §3, §4

The target in the next assay is T3, α1D-AR (Rattus norvegicus, UniProt P23944).
T3 construct: expressed in transfected cells; host or cells: COS-1
T3 sequence (P23944 1-561): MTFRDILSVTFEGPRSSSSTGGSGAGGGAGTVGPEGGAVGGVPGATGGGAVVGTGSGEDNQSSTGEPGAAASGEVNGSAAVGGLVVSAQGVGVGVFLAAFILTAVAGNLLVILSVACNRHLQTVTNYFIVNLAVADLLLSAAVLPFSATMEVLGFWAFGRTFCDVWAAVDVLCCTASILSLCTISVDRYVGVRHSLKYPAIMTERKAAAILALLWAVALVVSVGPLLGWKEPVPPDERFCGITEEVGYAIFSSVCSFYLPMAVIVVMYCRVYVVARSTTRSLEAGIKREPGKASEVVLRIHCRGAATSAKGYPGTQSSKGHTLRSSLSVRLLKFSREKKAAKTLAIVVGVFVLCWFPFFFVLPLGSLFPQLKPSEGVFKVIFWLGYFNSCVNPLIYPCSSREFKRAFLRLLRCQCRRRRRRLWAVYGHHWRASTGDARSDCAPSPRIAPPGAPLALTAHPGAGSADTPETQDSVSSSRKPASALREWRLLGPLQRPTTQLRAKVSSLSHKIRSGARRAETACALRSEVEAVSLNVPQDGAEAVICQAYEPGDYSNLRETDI
The experiment in a line: [3H]Prazosin competition/saturation binding on COS-1 membranes expressing α1D-AR. Further details: species or system rodent. To be noted: [3H]Prazosin 200 pM. The method, then: as §1, §2, §3, §4

A further assay addresses all α1-AR subtypes. Further details: method as in PMID 9249248. To be noted: cited from earlier work.
For assay [2], the target named is T1, α1A-AR. The experiment in a line: Phosphatidylinositol hydrolysis (IP accumulation) assay in COS-1 cells expressing α1A-AR. It counts as cell-based, rodent. To be noted: 20 min compound, then 10 µM (-)-norepinephrine 30 min, COS-1 cells; read-out: pIC50, inhibition of norepinephrine induced IP accumulation at α1A-AR (converted). The method, then:
as §1
Accumulation of [^3H] inositol phosphates (IPs) was determined as described previously. Briefly, COS-1 cells were transiently transfected with α1A, α1B and α1D - AR pMT4 plasmids using the Lipofectamine method. 24 h after transfection, cells were seeded into 96 well plates and labelled overnight with 20 µCi ml^−1 [^3H]myo-inositol in inositol free DMEM supplemented with 5% charcoal stripped FBS. Cells were washed twice with inositol free DMEM, and incubated in inositol free DMEM for 2 h at 37°C. Cells were treated for 20 minutes with LiCl (20 mM) and propanolol (20 µM) in the presence or absence of tested compounds. Agonists were then added for 30 min, and the reaction was terminated by addition of 0.4 M formic acid. Cells were lysed by freeze thawing twice and were applied to AG 1-X8 columns. Total IPs were eluted with 1 M ammonium formate in 0.1 M formic acid. 200 µL of eluted sample was diluted with 1 mL reverse osmosis water and 5 mL Ultimaflow scintillation fluid (Perkin Elmer), and were counted in a liquid scintillation counter.
Compounds were administered alone (100 µM) or prior to the addition of 10 µM […], to screen for agonist or antagonist activity respectively.
Figure 2 Inhibition of norepinephrine induced inositol phosphate (IP) accumulation at α1A- AR. α1A-AR transfected cells labelled overnight with [^3H]- myo-inositol were treated with indicated concentrations (300 µM – 0.1 µM) of test compounds, 1 (▪), 2 (▵), and 11 (○), for 20 min. This was followed by a 30 min. stimulation with 10 µM (-)- norepinephrine, following which total IP accumulation was determined. Data was normalized against basal COS-1 cell IP production and expressed as a percentage of the (-)-norepinephrine-stimulated maximal IP response of that receptor subtype. The data represented the mean ± SE of a single experiment (n = 4–5), performed in triplicate.
Figure 3 Inositol phosphate (IP) accumulation in the presence of norepinephrine and compound 8 at the α1A- adrenoceptor (AR). α1A-AR transfected cells were labelled with [^3H]- myo-inositol. Following a 20 min. treatment with lithium chloride (20 mM) and propanolol (20 µM) the cells were stimulated with the indicated concentrations (300 µM − 0.1 µM) of (-) norepinephrine (•) or compound 8 (▪) for 30 min. Total inositol phosphate (IP) accumulation was determined as described under “Materials and Methods”. Data was normalized against basal COS-1 cell IP production and expressed as a percentage of the (-)-norepinephrine-stimulated maximal IP response. The data represents the mean ± SE of three separate experiments (n = 3), performed in duplicate or triplicate.

Setting [3] is: antilog of mean pKi, Cheng-Prusoff, read-out: Ki α1A-AR.
Where [4] appears, read: pKi = -Log Ki, read-out: pKi α1A-AR (converted).
The mark [5] stands for this setting: antilog of mean pKi, Cheng-Prusoff, read-out: Ki α1B-AR.
Where [6] appears, read: pKi = -Log Ki, read-out: pKi α1B-AR (converted).
[7] abbreviates: antilog of mean pKi, Cheng-Prusoff, read-out: Ki α1D-AR.
Setting [8] is: pKi = -Log Ki, read-out: pKi α1D-AR (converted).

For the compound `CCCCN(Cc1ccc(N(CC)CC)cc1)CC(O)c1ccc(Cl)cc1` (stereo not shown) [Compound 12], the Ki is 45.5 µM on α1A-AR [1] (setting [3]); 30.9 µM on α1A-AR [1] (setting [4]); above 100 µM on α1B-AR (setting [5]); above 100 µM at α1B-AR (setting [6]); 62.4 µM on α1D-AR (setting [7]); 32.4 µM at α1D-AR (setting [8]).

Take `CCN(Cc1ccccc1)CC(O)c1cccc(Cl)c1` (stereo not shown) [Compound 3]: the Ki at α1A-AR [1] (setting [3]) is 15.1 µM; at α1A-AR [1] (setting [4]) it was 12.6 µM; at α1B-AR (setting [5]), 24.4 µM; at α1B-AR (setting [6]), 9.55 µM; at α1D-AR (setting [7]) it was 8.35 µM; at α1D-AR (setting [8]) it was 7.76 µM.

Turning to `Cc1ccc(C(=O)/C(S)=C(\Nc2cccc(Cl)c2)[n+]2ccccc2)cc1` [Compound 10], the Ki on α1A-AR [1] (setting [3]), on α1A-AR [1] (setting [4]), on α1B-AR (setting [5]), at α1B-AR (setting [6]), at α1D-AR (setting [7]) and at α1D-AR (setting [8]) was above 100 µM each time.

For `Cc1cccc(CN2CCCN(C(=S)NCCN3CCOCC3)CC2)n1` [Compound 5], the Ki at α1A-AR [1] (setting [3]), at α1A-AR [1] (setting [4]), on α1B-AR (setting [5]), at α1B-AR (setting [6]), at α1D-AR (setting [7]) and at α1D-AR (setting [8]) was above 100 µM each time.

Regarding `Cc1cc(CN2CCCN(C(=S)Nc3ccccc3C(F)(F)F)CC2)no1` [Compound 4], the Ki on α1A-AR [1] (setting [3]), at α1A-AR [1] (setting [4]), at α1B-AR (setting [5]), on α1B-AR (setting [6]), at α1D-AR (setting [7]) and on α1D-AR (setting [8]) was above 100 µM in each case.

As to `COc1cc2nc(N3CCN(C(=O)c4ccco4)CC3)nc(N)c2cc1OC` [prazosin], at all α1-AR subtypes, the Ki is around 0.0001 µM.

As for `COc1cccc(C=CCN2CCN(c3cccc(C(F)(F)F)c3)CC2)c1` [Compound 2], the IC50 at α1A-AR [2] is 17 µM. For the same compound, the Ki on α1A-AR [1] (setting [3]) was 0.49 µM; on α1B-AR (setting [5]) it was 4.59 µM; on α1D-AR (setting [7]) it was 18.8 µM; on α1D-AR (setting [8]), 10.5 µM. Besides, the “selectivity for α1A-AR over α1B-AR” value on α1A-AR [1] (from binding affinities) amounted to 10 fold. In addition, on α1A-AR [1] (from binding affinities), the “selectivity for α1A-AR over α1D-AR” value is listed as 38 fold.

For the compound `CN(C)CC(C(=O)c1ccc(Br)cc1)C(Br)c1ccccc1` (stereo not shown) [Compound 7], the Ki at α1A-AR [1] (setting [3]) is 20.3 µM; at α1A-AR [1] (setting [4]), 14.8 µM; on α1B-AR (setting [5]) it was 38.5 µM; on α1B-AR (setting [6]) it was 17 µM; on α1D-AR (setting [8]), 9.77 µM.

Turning to `CN(C)c1ccc(CN2CCCN(Cc3ccc(N(C)C)cc3)C2c2cc(Cl)ccc2O)cc1` [Compound 9], the Ki at α1A-AR [1] (setting [3]) was 24.5 µM; on α1A-AR [1] (setting [4]) it was 23.4 µM; at α1B-AR (setting [5]), above 100 µM; on α1B-AR (setting [6]) it was above 100 µM; on α1D-AR (setting [7]) it was 36.1 µM; on α1D-AR (setting [8]), 24.5 µM.

On to `CCCCC(O)CN1CCC(Cc2ccccc2)CC1` (stereo not shown) [Compound 6], for which the Ki at α1A-AR [1] (setting [3]) was 5.22 µM; at α1A-AR [1] (setting [4]) it was 4.9 µM; on α1B-AR (setting [5]), 17 µM; at α1B-AR (setting [6]), 13.5 µM; at α1D-AR (setting [7]), 5.9 µM; on α1D-AR (setting [8]), 5.5 µM.

The values above are taken from paper PMC3091868, “A Novel Structural Framework for α1A/D-Adrenoceptor Selective Antagonists Identified Using Subtype Selective Pharmacophores” (PLoS ONE, 2011).
